The structures appear in SMILES notation.

Assay [1] concerns the target T1, GRK5 (Homo sapiens, UniProt P34947).
T1 construct: purchased Millipore
Description: IC50 determination of compounds inhibiting GRK5 by Millipore KinaseProfiler (radiometric filtration binding assay). The class given is biochemical. The note with it: 2 mg/mL casein, 40 minutes at room temperature. The procedure: IC50 values are determined by a radiometric based filtration binding assay, namely Millipore KinaseProfiler™. GRK5 is incubated with 8 mM MOPS pH 7.0, 0.2 mM EDTA, 2 mg/mL casein, 10 mM MgAcetate and […] (specific activity approx. 500 cpm/pmol, concentration as required). The reaction is initiated by the addition of the MgATP mix. After incubation for 40 minutes at room temperature, the reaction is stopped by the addition of 3 % phosphoric acid solution. 10 µL of the reaction is then spotted onto a P30 filtermat and washed three times for 5 minutes in 75 mM phosphoric acid and once in methanol prior to drying and scintillation counting.

Assay [2] addresses T2, full length GRK5 (Homo sapiens, UniProt P34947).
T2 construct: 6/2 fold concentrated full length GRK5 (Millipore, #14-714) in reaction buffer is added to each well; purchased Millipore 14-714
Description: IC50 determination of compounds inhibiting GRK5 by ADP Glo Kinase Assay technology (Promega). Type of assay: biochemical. The note with it: 20 nM GRK5, 18.7 µM ATP, 10 µM casein, 12 concentrations, triplicates, read-out: GRK5 IC50.

T1 sequence (P34947 whole entry): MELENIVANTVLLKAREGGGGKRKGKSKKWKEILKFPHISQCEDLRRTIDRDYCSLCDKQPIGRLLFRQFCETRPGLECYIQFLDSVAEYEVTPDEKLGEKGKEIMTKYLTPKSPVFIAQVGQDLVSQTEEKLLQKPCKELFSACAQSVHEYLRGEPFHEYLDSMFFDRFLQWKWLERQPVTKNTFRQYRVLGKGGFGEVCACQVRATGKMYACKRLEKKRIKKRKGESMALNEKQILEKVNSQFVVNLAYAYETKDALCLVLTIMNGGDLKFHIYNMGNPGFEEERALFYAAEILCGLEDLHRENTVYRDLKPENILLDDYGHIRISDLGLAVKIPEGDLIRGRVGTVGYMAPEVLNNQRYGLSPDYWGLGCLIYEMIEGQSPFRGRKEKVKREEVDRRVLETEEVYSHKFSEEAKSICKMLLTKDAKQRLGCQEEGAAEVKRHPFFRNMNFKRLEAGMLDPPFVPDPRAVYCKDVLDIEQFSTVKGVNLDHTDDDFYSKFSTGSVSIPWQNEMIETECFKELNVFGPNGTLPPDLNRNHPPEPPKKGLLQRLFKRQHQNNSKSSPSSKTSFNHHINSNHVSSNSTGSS
T2 sequence (P34947 whole entry): as above

For the compound `CC[C@@H](NC(=O)c1ccc2c(c1)/C(=C/c1[nH]c(C)c(C(=O)N3CCC(N4CCN(C)CC4)CC3)c1C)C(=O)N2)c1ccccc1` [Compound 53, (3Z)-3-[(3,5-dimethyl-4-{[4-(4-methylpiperazin-1-yl)piperidin-1-yl]carbonyl}-1H-pyrrol-2-yl)methylene]-2-oxo-N-[(1R)-1-phenylpropyl]indoline-5-carboxamide], the IC50 (commonly the concentration needed to halve the response being measured) in assay [1] was < 5 µM; in assay [2] it was 5 to 20 µM.
For `Cc1[nH]c(/C=C2\C(=O)Nc3ccc(C(=O)N[C@@H](C)c4ccccc4)cc32)c(C)c1C(=O)N1CCCCC1` [Compound 54, (3Z)-3-{[3,5-dimethyl-4-(piperidin-1-ylcarbonyl)-1H-pyrrol-2-yl]methylene}-2-oxo-N-[(1S)-1-phenylethyl]indoline-5-carboxamide], in that order: > 30 µM and > 30 µM.
Turning to `Cc1[nH]c(/C=C2\C(=O)Nc3ccc(C(=O)N[C@H](C)c4cccc(Cl)c4)cc32)c(C)c1C(=O)N1CCCCC1` [Compound 55, (3Z)-N-[(1R)-1-(3-chlorophenyl)ethyl]-3-{[3,5-dimethyl-4-(piperidin-1-ylcarbonyl)-1H-pyrrol-2-yl]methylene}-2-oxoindoline-5-carboxamide], the IC50 in assay [1] and in assay [2] was < 5 µM in each case.
`Cc1[nH]c(/C=C2\C(=O)Nc3ccc(C(=O)N[C@@H](C)c4cccc(Cl)c4)cc32)c(C)c1C(=O)N1CCCCC1` [Compound 56, (3Z)-N-[(1S)-1-(3-chlorophenyl)ethyl]-3-{[3,5-dimethyl-4-(piperidin-1-ylcarbonyl)-1H-pyrrol-2-yl]methylene}-2-oxoindoline-5-carboxamide]: the concentration for half-maximal inhibition (IC50) in assay [1] and in assay [2] was > 30 µM each time.
As to `CC[C@H](NC(=O)c1ccc2c(c1)/C(=C/c1[nH]c(C)c(C(=O)N3CCCCC3)c1C)C(=O)N2)c1ccccc1` [Compound 57, (3Z)-3-{[3,5-dimethyl-4-(piperidin-1-ylcarbonyl)-1H-pyrrol-2-yl]methylene}-2-oxo-N-[(1S)-1-phenylpropyl]indoline-5-carboxamide], the IC50 in assay [1] and in assay [2] was > 30 µM throughout.
In the case of `CC[C@H](NC(=O)c1ccc2c(c1)/C(=C/c1[nH]c(C)c(C(=O)NCCN(CC)CC)c1C)C(=O)N2)c1ccccc1` [Compound 62, (3Z)-3-[(4-{[2-(diethylamino)ethyl]carbamoyl}-3,5-dimethyl-1H-pyrrol-2-yl)methylene]-2-oxo-N-[(1S)-1-phenylpropyl]indoline-5-carboxamide], the IC50 in assay [1] and in assay [2] was > 30 µM in each case.
Consider `CC[C@@H](NC(=O)c1ccc2c(c1)/C(=C/c1[nH]c(C)c(C(=O)N3CCCCC3)c1C)C(=O)N2)c1ccccc1` [Compound 63, (3Z)-3-{[3,5-dimethyl-4-(piperidin-1-ylcarbonyl)-1H-pyrrol-2-yl]methylene}-2-oxo-N-[(1R)-1-phenylpropyl]indoline-5-carboxamide], for which the IC50 in assay [1] and in assay [2] was < 5 µM each time.
For `Cc1[nH]c(/C=C2\C(=O)Nc3ccc(C(=O)N[C@@H](C)c4ccc(F)cc4)cc32)c(C)c1C(=O)N1CCCCC1` [Compound 64, (3Z)-3-{[3,5-dimethyl-4-(piperidin-1-ylcarbonyl)-1H-pyrrol-2-yl]methylene}-N-[(1S)-1-(4-fluorophenyl)ethyl]-2-oxoindoline-5-carboxamide], the IC50 in assay [1] and in assay [2] was > 30 µM in each case.
In the case of `COc1ccc([C@H](C)NC(=O)c2ccc3c(c2)/C(=C/c2[nH]c(C)c(C(=O)N4CCCCC4)c2C)C(=O)N3)cc1` [Compound 65, (3Z)-3-{[3,5-dimethyl-4-(piperidin-1-ylcarbonyl)-1H-pyrrol-2-yl]methylene}-N-[(1S)-1-(4-methoxyphenyl)ethyl]-2-oxoindoline-5-carboxamide], the results for the IC50 in assay [1] and in assay [2] were > 30 µM and < 5 µM, respectively.

The values are drawn from patent EP2837626A1, “Indolinone derivatives as GRK5 modulators” (Max-Planck-Gesellschaft zur Förderung der Wissenschaften …, priority 2013, dated 2015).
